# From US9150505B2, “Prophylactic or therapeutic agent for diabetes or obesity” (AJINOMOTO CO., INC., priority 2010, dated 2015)
# What was measured:
# [1] = test system: NCI-H716 cells; test: Promotion of GLP-1 secretion in NCI-H716 cells; type: cell-based, human; conditions: 10 mM, 30 minutes at 37° C., buffer assumed to be 1.0
# Procedure: Human appendix-derived cell line NCI-H716 (ATCC No CCL-251) was cultured in a 10% FBS-containing DMEM/HamF-12 medium at 37° C. in the presence of 5% CO2. NCI-H716 cells were seeded in a poly-D-lysine-coated 96-well plate at 100,000 cells/well and cultured for two days. Prior to sample addition, wells were washed with Hepes buffer (20 mM Hepes, 146 mM NaCl, 5 mM KCl, 1.5 mM CaCl2, 1 mM MgSO4, 5.5 mM D-glucose, 0.2% BSA, pH 7.4). Fifty μl of a sample solution dissolved in the same buffer was added and incubated at 37° C. for 30 minutes. The above-described compounds in Example 6 (Compound 1) (10 mM), Example 48 (Compound 2) (5 mM) and Example 14 (Compound 3) (2 mM) were used as the samples. In addition, a Hepes buffer was used as a control. After collecting the supernatant, the cells were precipitated by centrifugation (5,000×g, 1 min.) to collect the supernatant thereof. GLP-1 level in the supernatant was determined as described below according to a quantitative method for GLP-1 that uses GLP-1 receptor gene expression cells.
# According to a routine method (Lopez de Maturana R, Willshaw A, Kuntzsch A, Rudolph R, Donnelly D. J Biol Chem. 2003 Mar. 21; 278 (12):10195-200), human GLP-1 receptor gene (Nucleotide sequence 1) was integrated into pcDNA3.1 to prepare human GLP-1 receptor gene expression plasmid hGLP-1R/pcDNA3.1. Moreover, chimeric gene (Nucleotide sequence 2) of human Gα15 gene and human gustducin gene was integrated into pcDNA3.1 to prepare G protein expression plasmid Gα15-gust/pcDNA3.1. […] After 24 hours of cultivation in a CO2 incubator, changes in the fluorescence intensity were determined starting immediately after sample addition according to the Ca^2+ fluorescence indicator FLIPR Calcium 4 Assay Kit protocol (Molecular Devices) using FlexStation (Molecular Devices). Concentration dependency of human GLP-1 (7-36 Amide; Peptide Institute) with respect to the changes in the fluorescence intensity was determined and used as a standard curve for quantitating the sample. […]
# [2] = test system: NCI-H716 cells; test: Promotion of CCK secretion in NCI-H716 cells; type: cell-based, human
# Procedure: Human appendix-derived cell line NCI-H716 (ATCC No CCL-251) was cultured in a 10% FBS-containing DMEM/HamF-12 medium at 37° C. in the presence of 5% CO2. NCI-H716 cells were seeded in a poly-D-lysine-coated 24-well plate at 600,000 cells/well and cultured for two days. Prior to sample addition, wells were washed with Hepes buffer (20 mM Hepes, 146 mM NaCl, 5 mM KCl, 1.5 mM CaCl2, 1 mM MgSO4, 5.5 mM D-glucose, 0.02% BSA, pH 7.4). 300 μl of a sample solution dissolved in the same buffer was added and incubated at 37° C. for 30 minutes. Compound 1 in Example 6 (2 mM) and Compound 2 in Example 48 (1 mM) were used as the samples. In addition, a Hepes buffer was used as a control. After collecting the supernatant, the cells were precipitated by centrifugation (5,000×g, 1 min.) to collect the supernatant thereof, which was lyophilized in Speed Vac Concentrator (SAVANT) and dissolved by addition of 60 μl of water. CCK level in the solution was determined using Enzyme immuno assay kit (EK-069-04; PHENOIX PHARMACEUTICALS).
smiles,measurement,setting,value
"N[C@@H](CNC(=O)Nc1cc(Cl)cc(S(=O)(=O)O)c1O)C(=O)O [Example 6, (2S)-2-amino-3-{[(5-chloro-2-hydroxy-3-sulfophenyl)carbamoyl]amino}propanoic acid]",Relative secretion volumes (GLP-1),[1],2.16
same,Relative secretion volumes (CCK),"[2]; 2 mM, 30 minutes at 37° C., buffer assumed to be 1.0",4.89
same,effect of promoting CCK secretion,[2]; result in words,confirmed to have an effect of promoting CCK secretion
